Tests used:
[1] = molecular target: T1, Pin1 (Homo sapiens, UniProt Q13526); experiment: Pin1 fluorescence polarization competition assay, primary qHTS (HiFluor-488 / Alexa488 probe);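 note: Pin1 protein with fluorescent peptide probe, compound displacement read by fluorescence polarization, percent inhibition derived from corrected polarization values, concentration-response curves in 1536-well format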
Description: (§1) The goal of this assay was to identify small-molecule inhibitors of Pin1 using a fluorescence polarization competition assay (FIG. 1). […] Candidate compounds were screened in a concentration-titration series (e.g., 57 μM to 0.7 nM).
(§2) Pin1 (0.6 μM) was dispensed into black, solid 1536-well plates (32 rows by 48 columns) at 2 μL/well in Pin1 buffer (10 mM HEPES (pH 7.5), 10 mM NaCl, 0.01% Tween20, 1 mM DTT, and 1% glycerol). Next, 23 nL of compound or DMSO was delivered to each well using a pin tool (tip wash sequence: DMSO, IPA, MeOH, 3 s vacuum dry). Two μL of Pin1-1b-HiFluor488 peptide in buffer (10 mM HEPES (pH 7.5), 10 mM NaCl, 0.01% Tween20, 1 mM DTT, and 1% glycerol, 0.02 μM Pin1-1b-HiFluor488) or DMSO was then dispensed to each well using a pin tool (tip wash sequence: DMSO, IPA, MeOH, 3 s vacuum dry), and plates were incubated at room temperature for 10 min (Table 2). Each plate included controls with no candidate inhibitory compound (32 wells), with unlabeled Pin1-1c titration (3.5 mM to 0.020 mM in a 1:2 dilution series including 2 replicates per concentration; 32 wells), and without Pin1 (64 wells).
(§3) The fluorescence polarization signal of each well was measured on a ViewLux® plate reader using a 480/20 nm excitation filter and 540/25 nm S and P emission filters with a 20 second exposure with 2× binning (Table 2). Percent inhibitory activity was determined from corrected fluorescence polarization values.
(§4) Concentration-response curves were fitted to the signals arising from the resulting fluorescence polarization. The concentration-effect curves were then classified based on curve quality (r^2), response magnitude, and degree of measured activity. Compounds were subsequently categorized based on their curve class.
Curves showing change polarized fluorescence may be categorized into 5 classes. Class 1 includes complete curves, having 2 asymptotes and an r^2 value of ≥0.9, with an efficacy of either >80% (class 1.1) or ≤80% (class 1.2). Class 1 curves may also be classified as noisy curves when efficacy is >80% and r^2<0.9 (class 1.3) or when efficacy is ≤80% and r^2<0.9 (class 1.4). Class 2 includes incomplete curves having 1 asymptote and an r^2 value of either >0.9 (subclass a) or <0.9 (subclass b), with an efficacy of either >80% (class 2.1) or ≤80% (class 2.2). Class 2 curves may also be classified as noisy curves when efficacy is >80% and r^2<0.9 (class 2.3) or when efficacy is ≤80% and r^2<0.9 (class 2.4). Class 3 includes single point activity curves having 1 asymptote and an efficacy >3 SD from the mean activity of the sample field at the highest tested concentration. […] A fifth class captures any curves not otherwise classified (FIG. 4).

[2] = molecular target: T1, Pin1; experiment: Pin1 fluorescence polarization competition assay with Tamra-probe (secondary); conditions: for Emax: read-out: Tamra Secondary Efficacy
Description: An assay was developed for the identification of inhibitors of Pin1. […] Candidate compounds were screened in a concentration-titration series (e.g., 57 μM to 0.7 nM).
as §2, §3, §4
A further secondary assessment was accomplished by replacing the HiFluor-488-labeled probe with Tamra-probe, a red-shifted fluorophore.

[3] = molecular target: T1, Pin1; experiment: confirmatory Pin1 fluorescence polarization competition assay (Alexa488 reconfirmed); conditions: for Emax: read-out: Alexa488 Reconfirmed Efficacy;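 for all read-outs here: Pin1 competition with a HiFluor488-labelled peptide probe, read as fluorescence polarization after 10 min at room temperature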
Description: as §1, §2, §3, §4

[4] = Alexa488 Primary Potency, primary qHTS
[5] = Average HTS Potency, average over Alexa488 primary, Alexa488 reconfirmed and Tamra secondary assays
[6] = read-out: Alexa488 Primary Efficacy

T1 sequence (Q13526 whole entry): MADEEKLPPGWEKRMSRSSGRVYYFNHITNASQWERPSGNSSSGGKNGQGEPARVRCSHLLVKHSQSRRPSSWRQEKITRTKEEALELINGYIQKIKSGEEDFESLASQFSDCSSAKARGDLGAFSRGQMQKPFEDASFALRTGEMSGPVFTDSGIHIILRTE

Row | Tamra Secondary Curve Class ([2]; Tamra-probe) | Alexa488 Reconfirmed Curve Class ([3]; confirmatory retest) | IC50 [1, 4] [µM] | IC50 [1, 5] [µM] | Alexa488 Primary Curve Class ([1]; primary qHTS) | Emax [1, 6] [%] | Emax ([1]; read-out: Average HTS Efficacy) [%] | IC50 [2] [µM] | Emax [2] [%] | IC50 [3] [µM] | Emax [3] [%] | SMILES | Average HTS Efficacy ([1]; average over Alexa488 primary, Alexa488 reconfirmed and Tamra secondary assays) [% Inh.] | Alexa488 Primary Efficacy ([1]; primary qHTS) [% Inh.] | Tamra Secondary Efficacy ([2]; Tamra-probe) [% Inh.] | Alexa488 Reconfirmed Efficacy ([3]; confirmatory retest) [% Inh.]
1 | 1.2 (≤80% (class 1.2)) | 1.2 (≤80% (class 1.2)) | 18 | 7 | 1.2 (≤80% (class 1.2)) | 53 | 63 | 2 | 61 | 2 | 75 | O=C(O)C1Nc2c(Cl)cc(Cl)c(Cl)c2C2C=CCC12 (centres unmarked) [Compound 5] | – | – | – | –
2 | – | – | 22 | 14 | – | 42 | 72 | 11 | 87 | 10 | 85 | O=C(O)C1Nc2ccc(Br)cc2C2C=CCC12 (centres unmarked) [Compound 6] | – | – | – | –
3 | 2.2 (≤80% (class 2.2)) | 2.2 (≤80% (class 2.2)) | 45 | 29 | 1.2 (≤80% (class 1.2)) | 63 | 72 | 14 | 63 | – | 91 | Cc1ccc(C)c2c1NC(C(=O)O)C1CC=CC21 (centres unmarked) [Compound 7] | – | – | – | –
4 | 2.2 (≤80% (class 2.2)) | 2.2 (≤80% (class 2.2)) | 45 | 31 | 2.2 (≤80% (class 2.2)) | 67 | 74 | 18 | 52 | – | 103 | O=C(O)C1Nc2c(C(F)(F)F)ccc(Cl)c2C2C=CCC12 (centres unmarked) [Compound 8] | – | – | – | –
5 | – | – | 10 | 4 | – | 78 | 95 | 1.2 | 97 | 2 | 111 | Cc1ccc(N(Cc2cc(=O)[nH]c3ccccc23)C(=O)CCl)cc1 [Compound 9] | – | – | – | –
6 | – | – | 3 | 3 | 1.2 (≤80% (class 1.2)) | 65 | 83 | 4 | 91 | 3 | 93 | NS(=O)(=O)c1cc(C(=O)NC2CCSc3ccccc32)ccc1Cl (centres unmarked) [Compound 11] | – | – | – | –
7 | – | – | 15 | 6 | 1.2 (≤80% (class 1.2)) | 78 | 88 | 1.1 | 92 | 1.2 | 93 | O=C1OC(/C(=C\Nc2cc(Cl)ccc2O)[N+](=O)[O-])c2ccccc21 (centres unmarked) [Compound 12] | – | – | – | –
8 | – | – | 9 | 4 | – | 89 | 89 | 3 | 88 | 2 | 89 | O=S(=O)(O)c1ccc(O)c2cc(Nc3ccccc3)ccc12 [Compound 13] | – | – | – | –
9 | – | 1.2 (≤80% (class 1.2)) | 21 | 10 | 1.2 (≤80% (class 1.2)) | 71 | 72 | 8 | 85 | 1 | 59 | COc1ccccc1Nc1ccc2c(O)cc(S(=O)(=O)O)cc2c1 [Compound 14] | – | – | – | –
10 | – | 2.2 (≤80% (class 2.2)) | 10 | 11 | 2.2 (≤80% (class 2.2)) | 27 | 133 | 12 | 300 | 11 | 71 | O=S(=O)(O)c1cc(O)c2cc(Nc3ccccc3)ccc2c1 [Compound 15] | – | – | – | –
11 | – | – | 76 | 27 | – | 54 | 77 | 2 | 84 | 2 | 93 | CCCCCC(=O)Nc1cc(S(=O)(=O)O)cc2cc(S(=O)(=O)O)cc(O)c12 [Compound 16] | – | – | – | –
12 | – | – | 10 | 5 | – | 64 | 79 | 3 | 89 | 2 | 83 | Cc1ccc(C)n1-c1cccc(C(=O)O)c1 [Compound 17] | – | – | – | –
13 | – | – | 68 | 24 | – | 44 | 77 | 2 | 95 | 2 | 91 | Cc1ccc(C)n1-c1sccc1C(=O)O [Compound 18] | – | – | – | –
14 | 2.2 (≤80% (class 2.2)) | 1.2 (≤80% (class 1.2)) | 38 | 15 | 1.2 (≤80% (class 1.2)) | 41 | 64 | 5 | 78 | 2 | 73 | O=C(O)CCCNC(=O)/C=C/c1ccco1 [Compound 19] | – | – | – | –
15 | 1.2 (≤80% (class 1.2)) | 1.2 (≤80% (class 1.2)) | 14 | 7 | – | 73 | 73 | 6 | 70 | 2 | 77 | O=C(c1ccc(=O)oc1)N1CCOCC1 [Compound 20] | – | – | – | –
16 | 2.2 (≤80% (class 2.2)) | 2.2 (≤80% (class 2.2)) | 15 | 11 | 1.2 (≤80% (class 1.2)) | 58 | 62 | 8 | 72 | 11 | 56 | Cc1oc(-c2ccc3c(c2)OCCO3)cc1C(=O)NC(Cc1ccccc1)C(=O)O (centres unmarked) [Compound 21] | – | – | – | –
17 | 2.2 (≤80% (class 2.2)) | 2.2 (≤80% (class 2.2)) | – | 17 | – | – | 88 | 12 | 82 | 21 | 93 | O=C(O)c1cc2cccc([N+](=O)[O-])c2[nH]1 [Compound 22] | – | – | – | –
18 | 2.2 (≤80% (class 2.2)) | – | 76 | 33 | – | 63 | 77 | 8 | 77 | 15 | 92 | O=C(O)Cc1c[nH]c2cccc(O)c12 [Compound 23] | – | – | – | –
19 | – | 1.2 (≤80% (class 1.2)) | 43 | 23 | 1.2 (≤80% (class 1.2)) | 76 | 92 | 12 | 100 | 14 | 101 | O=S(=O)(Nc1nc(-c2sccc2Cl)cs1)c1cc(Cl)ccc1Cl [Compound 24] | – | – | – | –
20 | – | – | 20 | 22 | – | 71 | 94 | 21 | 101 | 24 | 111 | COc1ccc(NC(=O)CN(C)C(=O)c2cc3c(s2)CCC3)cc1 [Compound 26] | – | – | – | –
21 | – | – | 23 | 27 | – | 85 | 108 | 27 | 126 | – | 112 | COc1ccc(S(=O)(=O)N2CCN(C(=O)c3cc4c(s3)CCC4)CC2)cc1 [Compound 27] | – | – | – | –
22 | – | – | 3 | 0.9 | – | 83 | 85 | 0.1 | 82 | 0.1 | 90 | Cc1ccc(C(=O)c2no[n+]([O-])c2C(=O)c2ccc(C)cc2)cc1 [Compound 29] | – | – | – | –
23 | – | – | 3 | 1.16 | 1.2 (≤80% (class 1.2)) | 69 | 79 | 0.43 | 80 | 0.34 | 89 | Cc1c(C(=O)c2no[n+]([O-])c2C(=O)c2cnn(C)c2C)cnn1C [Compound 30] | – | – | – | –
24 | – | – | 4 | 2 | – | 74 | 80 | 2 | 82 | 2 | 85 | N#Cc1no[n+]([O-])c1C(=O)c1cccs1 [Compound 31] | – | – | – | –
25 | – | – | 38 | 13 | 1.2 (≤80% (class 1.2)) | 21 | 61 | 0.19 | 81 | 0.24 | 82 | COc1ccc(C(=O)c2no[n+]([O-])c2C(=O)c2ccc(OC)cc2)cc1 [Compound 32] | – | – | – | –
26 | 2.2 (≤80% (class 2.2)) | 2.2 (≤80% (class 2.2)) | 48 | 21 | 1.2 (≤80% (class 1.2)) | 20 | 58 | 10 | 70 | 7 | 84 | Cc1cc(C(=O)NCc2ccc(C(=O)O)o2)c(C)o1 [Compound 33] | – | – | – | –
27 | 3.0 | – | 20 | 27 | – | 65 | 91 | 38 | 103 | 24 | 104 | CCCCCCCCCCCCN1[C@@H](C(=O)O)c2cc(C(F)(F)F)ccc2S1(=O)=O [Compound 34] | – | – | – | –

Row | SMILES | Tamra Secondary Curve Class ([2]; Tamra-probe) | Alexa488 Reconfirmed Curve Class ([3]; confirmatory retest) | IC50 [1, 4] [µM] | IC50 [1, 5] [µM] | Alexa488 Primary Curve Class ([1]; primary qHTS) | Emax [1, 6] [%] | Emax ([1]; read-out: Average HTS Efficacy) [%] | IC50 [2] [µM] | Emax [2] [%] | IC50 [3] [µM] | Emax [3] [%] | Average HTS Efficacy ([1]; average over Alexa488 primary, Alexa488 reconfirmed and Tamra secondary assays) [% Inh.] | Alexa488 Primary Efficacy ([1]; primary qHTS) [% Inh.] | Tamra Secondary Efficacy ([2]; Tamra-probe) [% Inh.] | Alexa488 Reconfirmed Efficacy ([3]; confirmatory retest) [% Inh.]
28 | O=C(O)c1cccc2c1NC(C(=O)O)C1CC(Sc3ccccc3[N+](=O)[O-])C(Cl)C21 (centres unmarked) [Compound 3] | 1.2 (≤80% (class 1.2)) | 1.2 (≤80% (class 1.2)) | – | – | – | – | – | – | – | – | – | 71 | 80 | 72 | 61
